# Like-named read-outs stand apart in the source and are kept apart here.
# Legend:
# HepG-2 cells = assay: MTT cytotoxicity assay on HepG-2 cells; format: cell-based, human; settings: Homo sapiens, HepG2; for viability at 1.25 µM: HepG-2, 1.25 µM; for viability at 1.25 µM / viability at 2.5 µM / viability at 5 µM / viability at 10 µM / viability at 20 µM / viability at 40 µM / viability at 80 µM / viability at 160 µM: Table S1; for viability at 2.5 µM: HepG-2, 2.5 µM; for viability at 5 µM: HepG-2, 5 µM; for viability at 10 µM: HepG-2, 10 µM; for viability at 20 µM: HepG-2, 20 µM; for viability at 40 µM: HepG-2, 40 µM; for viability at 80 µM: HepG-2, 80 µM; for viability at 160 µM: HepG-2, 160 µM; for IC50: MTT, 24 h treatment, mean of three experiments ± SEM
# Experimental: (§1) Cytotoxic activity of the synthesized compounds was evaluated against HepG-2 and MCF-7 cancer cell lines using the MTT assay. The tested cell lines were obtained from the American Type Culture Collection (ATCC, […], USA) through the Tissue Culture Unit, The Egyptian Organization for Biological Products and Vaccines (Vacsera, Giza, Egypt). Indirubin, chemicals, and solvents were purchased from Sigma-Aldrich (St. Louis, MO, USA). The cells were grown on RPMI-1640 medium supplemented with 10% inactivated fetal calf serum and 50 µg/mL gentamycin. The cells were maintained at 37 °C in a humidified atmosphere with 5% CO2 and were sub-cultured two to three times per week. For antitumor assays, the tumor cell lines were suspended in the medium at concentration 5 × 10^4 cell/well in Corning® 96-well tissue culture plates (Corning, Corning, NY, USA), then incubated for 24 h. The tested molecules were then added to 96-well plates (six replicates) to achieve six concentrations for each compound. Six vehicle controls with media or 0.5% DMSO were run for each 96-well plate as a control. After incubating for 24 h, the numbers of viable cells were determined by the MTT test. Briefly, the media was removed from the 96 well plate and replaced with 100 µL of fresh culture RPMI 1640 medium without phenol red then 10 µL of the 12 mM MTT stock solution (5 mg of MTT in 1 mL of PBS) to each well including the untreated controls. The 96-well plates were then incubated at 37 °C and 5% CO2 for 4 h. An 85 µL aliquot of the media was removed from the wells, and 50 µL of DMSO was added to each well, mixed thoroughly with the pipette, and incubated at 37 °C for 10 min. Then, the optical density was measured at 590 nm with the microplate reader (SunRise, TECAN, Inc., Morrisville, NC, USA) to determine the number of viable cells, and the percentage of viability was calculated as […], where ODt is the mean optical density of wells treated with the tested sample and ODc is the mean optical density of untreated cells. The relation between surviving cells and drug concentration was plotted to obtain the survival curve of each tumor cell line after treatment with the specified compound. […] Each concentration was repeated four times.
# MCF-7 cells = assay: MTT cytotoxicity assay on MCF-7 cells; format: cell-based; settings: Homo sapiens, MCF7; for viability at 1.25 µM: MCF-7, 1.25 µM; for viability at 2.5 µM: MCF-7, 2.5 µM; for viability at 5 µM: MCF-7, 5 µM; for viability at 10 µM: MCF-7, 10 µM; for viability at 20 µM: MCF-7, 20 µM; for viability at 40 µM: MCF-7, 40 µM; for viability at 80 µM: MCF-7, 80 µM; for viability at 160 µM: MCF-7, 160 µM
# Experimental: as §1
# [1] = MTT, 24 h treatment, mean of three experiments ± SEM, read-out: IC50 (µM) MCF-7
Structure (SMILES),viability at 1.25 µM (HepG-2 cells) [%],viability at 2.5 µM (HepG-2 cells) [%],viability at 5 µM (HepG-2 cells) [%],viability at 10 µM (HepG-2 cells) [%],viability at 20 µM (HepG-2 cells) [%],viability at 40 µM (HepG-2 cells) [%],viability at 80 µM (HepG-2 cells) [%],viability at 160 µM (HepG-2 cells) [%],IC50 (HepG-2 cells) [µM],viability at 1.25 µM (MCF-7 cells; Table S2) [%],viability at 2.5 µM (MCF-7 cells; Table S2) [%],viability at 5 µM (MCF-7 cells; Table S2) [%],viability at 10 µM (MCF-7 cells; Table S2) [%],viability at 20 µM (MCF-7 cells; Table S2) [%],viability at 40 µM (MCF-7 cells; Table S2) [%],viability at 80 µM (MCF-7 cells; Table S2) [%],viability at 160 µM (MCF-7 cells; Table S2) [%],IC50 (MCF-7 cells; [1]) [µM],"IC50 (MCF-7 cells; Table S2, read-out: IC50 (µM) on MCF-7 cell line) [µM]"
"O=C1Nc2ccccc2C1=Nc1ccc2nc[nH]c(=O)c2c1 [Compound 7, 6-(2-Oxo-1,2-dihydro-indol-3-ylideneamino)-3H-quinazolin-4-one]",83.4 ± 6.9,70.9 ± 6,61.9 ± 5.1,49.3 ± 2.2,35.9 ± 2.1,26.5 ± 1.9,9.4 ± 0.4,7.2 ± 0.2,10.8 ± 0.92,101 ± 7.2,93.7 ± 8.2,87.6 ± 6.1,78.2 ± 5.3,66.3 ± 4,53.1 ± 2,45.2 ± 1.4,36.8 ± 1.2,21.9 ± 1.83,
"O=C1Nc2ccc(F)cc2/C1=N/c1ccc2nc[nH]c(=O)c2c1 [Compound 8, 6-(5-Flouro-2-oxo-1,2-dihydro-indol-3-ylideneamino)-3H-quinazolin-4-one]",88 ± 7.6,71.2 ± 6.1,62.3 ± 4.3,48.2 ± 1.8,33.6 ± 0.13,17.5,15.1 ± 1.4,9.3 ± 1.1,7.54 ± 0.53,104 ± 4.9,94.2 ± 4,87.9 ± 3.9,75.7 ± 3.2,57.1 ± 2.4,43.9 ± 2,29.7 ± 1.4,11.5 ± 0.7,52.8 ± 3.21,
"O=C1Nc2ccc(Br)cc2C1=Nc1ccc2nc[nH]c(=O)c2c1 [Compound 10, 6-(5-Bromo-2-oxo-1,2-dihydro-indol-3-ylideneamino)-3H-quinazolin-4-one]",91.2 ± 7,87.9 ± 8.1,83 ± 5.2,71.4 ± 4.5,58.7 ± 4.3,35.8 ± 2.1,19.4 ± 1.2,14.2 ± 0.9,28.1 ± 2.08,98.3 ± 7.4,99.1 ± 6.9,87.2 ± 5.7,76.5 ± 4,65.2 ± 2.8,55.4 ± 2.6,41.2 ± 2.8,25.4 ± 2.6,> 100,112 ± 11.2
"O=C1Nc2ccc([N+](=O)[O-])cc2C1=Nc1ccc2nc[nH]c(=O)c2c1 [Compound 11, 6-(5-Nitro-2-oxo-1,2-dihydro-indol-3-ylideneamino)-3H-quinazolin-4-one]",99.2 ± 6.9,91.3 ± 7.9,89.4 ± 6.4,79.5 ± 5.5,67.1 ± 3.8,54.6 ± 1.9,44.1 ± 1.3,37.6 ± 1.1,20.9 ± 1.54,116 ± 6.4,97.5 ± 7,90.1 ± 6.4,86 ± 5.5,63.9 ± 3.8,39.1 ± 2.9,25.6 ± 1.3,11.2 ± 0.4,72.4 ± 6.51,
"Cc1ccc2c(c1)C(=Nc1ccc3nc[nH]c(=O)c3c1)C(=O)N2 [Compound 12, 6-(5-Methyl-2-oxo-1,2-dihydro-indol-3-ylideneamino)-3H-quinazolin-4-one]",96.4 ± 6.9,84.9 ± 6.1,81.8 ± 5.4,69.1 ± 4.1,58.9 ± 2.2,49.7 ± 1.7,36.3 ± 0.5,33.9 ± 1.2,31.9 ± 2.12,104 ± 5.4,91.4 ± 4.1,80 ± 4.2,69.2 ± 2.7,58.5 ± 1.5,30.1 ± 1.2,21.5 ± 1.5,9.15 ± 1.2,46.2 ± 2.47,
